# Experimental data reported in patent US8058242B2, “Chimeric proteins with natriuretic activity” (The University of Queensland, priority 2004, dated 2011).
# Legend:
# [1] = tested on: endothelium-intact aortic rings (NPR-C mediated); assay: Aortic ring relaxation, endothelium-intact rings pre-contracted with 40 mM KCl (Example 3); set-up: species or system rat; conditions: for competitive inhibition of the binding of TNPc: endothelium-intact aortic rings, TNPa or TNPb followed by TNPc 0.1 μM; for percentage relaxation of the precontraction by KCl: endothelium-intact rat aortas pre-contracted with 40 mM KCl, peptide 0.1 μM
# Experimental: (§1) Male Sprague Dawley rats were killed and the descending thoracic aorta rapidly removed and flushed with physiological solution. After being cleared of adhering fat and connective tissue, 5 mm rings were mounted under 10 g resting tension, between two stainless steel hooks, in organ baths (37° C.) containing carbogenated (95% O2 and 5% CO2) physiological salt solution of the following composition (mM): NaCl, 118.4; NaHCO3, 25; glucose, 11; KCl, 4.7; MgSO4, 1.2; KH2PO4, 1.2 and CaCl2, 2.5. The lower hook was attached to a tissue holder and the upper hook to a force displacement transducer (Grass FTO3). Where indicated endothelial cells were removed by gentle rubbing of the intimal surface with a wire. To confirm the presence or absence of endothelial cells, tissues were precontracted with a sub-maximal concentration of phenylephrine (0.3 μM) and the response to acetylcholine (ACh, 10 μM) observed. Ach-induced relaxation greater than 80% of maximum indicated the presence of endothelium; whereas Ach-induced relaxation less than 10% indicated the absence of endothelium. Ring preparations under resting tension were conditioned by two contraction/relaxation cycles with 40 mM KCl, contracted by a third application of 40 mM KCl and then relaxed with different doses of the venom peptides. Responses were expressed as a percentage relaxation of the precontraction by KCl.
# [2] = tested on: endothelium-denuded aortic rings (GC-A mediated); assay: Aortic ring relaxation, endothelium-denuded rings pre-contracted with 40 mM KCl (Example 3); set-up: species or system rat; conditions: for competitive inhibition of the binding of TNPc: endothelium-denuded aortic rings, TNPa or TNPb followed by TNPc 0.1 μM; for percentage relaxation of the precontraction by KCl: endothelium-denuded rat aortas pre-contracted with 40 mM KCl, peptide 0.1 μM
# Experimental: as §1
# [3] = target: T1, rat GC-A (Rattus norvegicus, UniProt P18910); assay: Cell cyclic GMP elevations in HEK-293 cells stably expressing rat GC-A (Example 4); format: cell-based; conditions: 0.1 μM; 293 cells over-expressing GC-A
# T1 construct: expressed in transfected cells
# T1 sequence (P18910 29-1057): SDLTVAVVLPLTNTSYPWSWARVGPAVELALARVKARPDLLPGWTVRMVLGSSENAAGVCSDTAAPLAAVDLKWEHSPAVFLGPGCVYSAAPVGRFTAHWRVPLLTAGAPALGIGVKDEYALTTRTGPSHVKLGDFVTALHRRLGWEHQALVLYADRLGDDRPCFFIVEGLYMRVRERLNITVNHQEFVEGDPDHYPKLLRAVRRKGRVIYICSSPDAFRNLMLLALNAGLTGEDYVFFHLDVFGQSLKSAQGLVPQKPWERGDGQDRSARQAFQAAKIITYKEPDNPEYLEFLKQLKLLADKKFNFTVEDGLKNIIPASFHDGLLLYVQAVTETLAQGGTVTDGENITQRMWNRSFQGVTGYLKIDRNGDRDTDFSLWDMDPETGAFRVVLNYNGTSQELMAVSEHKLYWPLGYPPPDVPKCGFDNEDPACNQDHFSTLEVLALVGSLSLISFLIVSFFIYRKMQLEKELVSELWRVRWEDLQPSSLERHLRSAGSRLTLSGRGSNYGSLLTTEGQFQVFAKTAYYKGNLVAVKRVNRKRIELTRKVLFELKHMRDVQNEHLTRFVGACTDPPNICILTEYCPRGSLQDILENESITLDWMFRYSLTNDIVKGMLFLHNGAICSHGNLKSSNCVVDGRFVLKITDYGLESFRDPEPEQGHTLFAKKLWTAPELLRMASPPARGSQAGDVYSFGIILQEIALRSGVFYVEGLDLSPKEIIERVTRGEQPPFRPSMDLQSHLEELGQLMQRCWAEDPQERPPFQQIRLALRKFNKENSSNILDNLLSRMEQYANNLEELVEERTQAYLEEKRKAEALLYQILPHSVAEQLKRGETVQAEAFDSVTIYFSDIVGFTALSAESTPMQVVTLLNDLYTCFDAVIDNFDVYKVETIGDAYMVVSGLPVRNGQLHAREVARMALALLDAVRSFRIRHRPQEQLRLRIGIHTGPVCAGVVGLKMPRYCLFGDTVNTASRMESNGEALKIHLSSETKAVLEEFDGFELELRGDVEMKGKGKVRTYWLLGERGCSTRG
# Excerpt: The human embryonic kidney 293 (HEK-293) cell line was used for the stable expression of rat GC-A (GC-A/293). Cells expressing rat GC-A (GC-A/293) in the HEK-293 cell line were as previously described (Potter L. R., and Garbers D. L., (1992), J Biol Chem. 26, 14531-4) and determination of cGMP elevations was undertaken as previously described (Chrisman et al. T. D., Schulz, S., Potter, L. R. and Garbers, D. L., (1993,) J. Biol. Chem. (1993) 268 (5), 3698-3703). Responses were expressed as a percentage of the effect produced by ANP.
# [4] = tested on: conscious rabbits; assay: Blood pressure and heart rate in conscious rabbits, intravenous infusion dose-response (Example 8); conditions: for Recovery (MAP) / Recovery Delta SED (MAP): after 1 hour recovery period; for Recovery (MAP) / Recovery Delta SED (MAP) / MAP at final dose / Treatment Effect, change of mean blood pressure during the infusion: Table 10A; for MAP at final dose / Treatment Effect, change of mean blood pressure during the infusion: highest dose; for Treatment Effect, change of mean blood pressure during the infusion: groups 1, 2A and 3; for Diastolic BP, mean difference from control / HR, mean difference from control / Mean BP, mean difference from control / Systolic BP, mean difference from control: 45 min
# [5] = average of the 3 doses 1.0, 2.0, 4.0 μg/kg/min
Sequence,competitive inhibition of the binding of TNPc [1],percentage relaxation of the precontraction by KCl [1],competitive inhibition of the binding of TNPc [2],percentage relaxation of the precontraction by KCl [2],"cGMP elevations, percentage of the effect produced by ANP [3]",Recovery (MAP) [4] [mm Hg],Recovery Delta SED (MAP) [4] [mm Hg],"Diastolic BP, Average Response SED [4, 5] [mmHg]","Mean BP (MAP), Average Response SED [4, 5] [mmHg]","Systolic BP, Average Response SED [4, 5] [mmHg]",MAP at final dose [4] [mm Hg],"Treatment Effect, change of mean blood pressure during the infusion [4] [mm Hg]","Diastolic BP, mean difference from control ([4]; i.v. infusion 1.0 μg/kg/min) [mmHg]","HR, mean difference from control ([4]; i.v. infusion 1.0 μg/kg/min) [bpm]","Mean BP, mean difference from control ([4]; i.v. infusion 1.0 μg/kg/min) [mmHg]","Systolic BP, mean difference from control ([4]; i.v. infusion 1.0 μg/kg/min) [mmHg]","Diastolic BP, mean difference from control ([4]; i.v. infusion 2.0 μg/kg/min) [mmHg]","HR, mean difference from control ([4]; i.v. infusion 2.0 μg/kg/min) [bpm]","Mean BP, mean difference from control ([4]; i.v. infusion 2.0 μg/kg/min) [mmHg]","Systolic BP, mean difference from control ([4]; i.v. infusion 2.0 μg/kg/min) [mmHg]",further results
SDPKIGDGCFGLPLDHIGSVSGLGCNRPVQNRPKK (A portion of a natriuretic peptide) [TNPb],lack the ability to competitively inhibit the binding of TNPc,approximately 20%,lack the ability to competitively inhibit the binding of TNPc,no relaxation,lesser effects on cGMP elevations,68.2,3.5 ± 2.3,−7.8 ± 0.9,−9.6 ± 1.1,−8.9 ± 1.4,64.7,−11.0,−7.0,−3.9,−8.0,−7.9,−7.9,−5.1,−9.8,−8.8,"HR, Average Response SED [4, 5]: −1.4 ± 3.5 bpm; Diastolic BP, mean difference from control ([4]; i.v. infusion 4.0 μg/kg/min): −8.6 mmHg; HR, mean difference from control ([4]; i.v. infusion 4.0 μg/kg/min): 4.7 bpm; Mean BP, mean difference from control ([4]; i.v. infusion 4.0 μg/kg/min): −11.0 mmHg; Systolic BP, mean difference from control ([4]; i.v. infusion 4.0 μg/kg/min): −10.0 mmHg"
SDSKIGDGCFGLPLDHIGSVSGLGCNRPVQNRPKK (A portion of a natriuretic peptide) [TNPa],lack the ability to competitively inhibit the binding of TNPc,approximately 20%,lack the ability to competitively inhibit the binding of TNPc,no relaxation,lesser effects on cGMP elevations,65.3,3.0 ± 2.9,−7.9 ± 0.9,−8.7 ± 1.1,−5.7 ± 1.3,62.3,−11.6,−6.0,−16.1,−6.4,−2.8,−7.7,−15.9,−8.0,−4.9,"Diastolic BP, mean difference from control ([4]; i.v. infusion 4.0 μg/kg/min): −9.9 mmHg; HR, mean difference from control ([4]; i.v. infusion 4.0 μg/kg/min): −9.8 bpm; Mean BP, mean difference from control ([4]; i.v. infusion 4.0 μg/kg/min): −11.6 mmHg; Systolic BP, mean difference from control ([4]; i.v. infusion 4.0 μg/kg/min): −9.4 mmHg"
